Some results are limits rather than exact numbers.

This assay concerns Mycosphaerella graminicola (Septoria tritici). Briefly: Mycosphaerella graminicola (Septoria tritici) / liquid culture (Septoria blotch). It is filed as cell-based. The following applies: Zymoseptoria tritici, growth inhibition photometrically 4 to 5 days after application, read-out: control of Mycosphaerella graminicola. As for the experimental part: Example B12: Mycosphaerella graminicola (Septoria tritici)/Liquid Culture (Septoria Blotch) Conidia of the fungus from cryogenic storage are directly mixed into nutrient broth (PDB potato dextrose broth). After placing a (DMSO) solution of test compound into a microtiter plate (96-well format), the nutrient broth containing the fungal spores is added. The test plates are incubated at 24° C. and the inhibition of growth is determined photometrically 4 to 5 days after application.

Consider `Cc1c(C2CN(C(=O)c3cc(-c4ccc(F)cc4F)on3)Cc3ccccc32)nc(Cl)n1C` (stereo not drawn) [Compound P-16, [4-(2-chloro-1,5-dimethyl-imidazol-4-yl)-3,4-dihydro-1H-isoquinolin-2-yl]-[5-(2,4-difluorophenyl)isoxazol-3-yl]methanone], for which the inhibition of growth at 20 ppm is ≥ 80%. The figure for `Cc1nc(C2CN(C(=O)c3cc(-c4ccc(F)cc4F)on3)Cc3ccccc32)c(Cl)n1C` (stereo not drawn) [Compound P-17, [4-(5-chloro-1,2-dimethyl-imidazol-4-yl)-3,4-dihydro-1H-isoquinolin-2-yl]-[5-(2,4-difluorophenyl)isoxazol-3-yl]methanone] is ≥ 80%; for `Cc1c(C2CN(C(=O)c3cc(-c4ccc(F)cc4)on3)Cc3ccccc32)cc(C#N)n1C` (stereo not drawn) [Compound P-18, 4-[2-[5-(4-fluorophenyl)isoxazole-3-carbonyl]-3,4-dihydro-1H-isoquinolin-4-yl]-1,5-dimethyl-pyrrole-2-carbonitrile] it is ≥ 80%. With `Cc1c(C2CN(C(=O)c3cc(-c4ccc(F)cc4F)on3)Cc3ccccc32)cc(C#N)n1C` (stereo not drawn) [Compound P-20, 4-[2-[5-(2,4-difluorophenyl)isoxazole-3-carbonyl]-3,4-dihydro-1H-isoquinolin-4-yl]-1,5-dimethyl-pyrrole-2-carbonitrile] the figure was ≥ 80%. The figure for `Cn1nc(C2CN(C(=O)c3cc(-c4ccc(F)cc4F)on3)Cc3ccccc32)cc1Br` (stereo not drawn) [Compound P-21, [4-(5-bromo-1-methyl-pyrazol-3-yl)-3,4-dihydro-1H-isoquinolin-2-yl]-[5-(2,4-difluorophenyl)isoxazol-3-yl]methanone] is ≥ 80%. As for `Cc1cncc(C2CN(C(=O)c3cc(-c4ccc(F)cc4F)on3)Cc3ccccc32)c1` (stereo not drawn) [Compound P-22, [5-(2,4-difluorophenyl)isoxazol-3-yl]-[4-(5-methyl-3-pyridyl)-3,4-dihydro-1H-isoquinolin-2-yl]methanone], the inhibition of growth at 20 ppm is ≥ 80%.

In the case of `Cc1ncc(C2CN(C(=O)c3cc(-c4ccc(F)cc4F)on3)Cc3ccccc32)cc1Cl` (stereo not drawn) [Compound P-23, [4-(5-chloro-6-methyl-3-pyridyl)-3,4-dihydro-1H-isoquinolin-2-yl]-[5-(2,4-difluorophenyl)isoxazol-3-yl]methanone], the inhibition of growth at 20 ppm is ≥ 80%. The figure for `O=C(c1cc(-c2ccc(F)cc2F)on1)N1Cc2ccccc2C(c2cnccc2Cl)C1` (stereo not drawn) [Compound P-24, [4-(4-chloro-3-pyridyl)-3,4-dihydro-1H-isoquinolin-2-yl]-[5-(2,4-difluorophenyl)isoxazol-3-yl]methanone] is ≥ 80%. Regarding `Cc1nc(C2CN(C(=O)c3cc(-c4ccc(F)cc4F)on3)Cc3ccccc32)no1` (stereo not drawn) [Compound P-25, [5-(2,4-difluorophenyl)isoxazol-3-yl]-[4-(5-methyl-1,2,4-oxadiazol-3-yl)-3,4-dihydro-1H-isoquinolin-2-yl]methanone], the inhibition of growth at 20 ppm was ≥ 80%.

For `Cc1c(C2CN(C(=O)c3cc(-c4ccccc4)on3)Cc3ccccc32)cc(C#N)n1C` (stereo not drawn) [Compound P-26, 1,5-dimethyl-4-[2-(5-phenylisoxazole-3-carbonyl)-3,4-dihydro-1H-isoquinolin-4-yl]pyrrole-2-carbonitrile], the inhibition of growth at 20 ppm was ≥ 80%. The figure for `CC1(c2cccnc2)CN(C(=O)c2cc(-c3ccc(F)cc3F)on2)Cc2ccccc21` (stereo not drawn) [Compound P-27, [5-(2,4-difluorophenyl)isoxazol-3-yl]-[4-methyl-4-(3-pyridyl)-1,3-dihydroisoquinolin-2-yl]methanone] is ≥ 80%. The figure for `Cc1c(C2CN(C(=O)c3nnc(-c4ccc(F)cc4F)s3)Cc3ccccc32)cc(C#N)n1C` (stereo not drawn) [Compound P-28, 4-[2-(5-(2,4-difluorophenyl)-1,3,4-thiadiazole-2-carbonyl]-3,4-dihydro-1H-isoquinolin-4-yl]-1,5-dimethyl-pyrrole-2-carbonitrile] is ≥ 80%. In the case of `Cc1ncc(C2CN(C(=O)c3cc(-c4ccccc4)on3)Cc3ccccc32)cc1Cl` (stereo not drawn) [Compound P-29, [4-(5-chloro-6-methyl-3-pyridyl)-3,4-dihydro-1H-isoquinolin-2-yl]-(5-phenylisoxazol-3-yl)methanone], the inhibition of growth at 20 ppm is ≥ 80%.

On to `O=C(c1cc(-c2ccccc2)on1)N1Cc2ccccc2C(c2cnccc2Cl)C1` (stereo not drawn) [Compound P-30, [4-(4-chloro-3-pyridyl)-3,4-dihydro-1H-isoquinolin-2-yl]-(5-phenylisoxazol-3-yl)methanone], for which the inhibition of growth at 20 ppm was ≥ 80%. Consider `Cc1nc(C2CN(C(=O)c3cc(-c4ccccc4)on3)Cc3ccccc32)c(Cl)n1C` (stereo not drawn) [Compound P-31, [4-(5-chloro-1,2-dimethyl-imidazol-4-yl)-3,4-dihydro-1H-isoquinolin-2-yl]-(5-phenylisoxazol-3-yl)methanone], for which the inhibition of growth at 20 ppm was ≥ 80%. The figure for `CC1(c2cccnc2)CN(C(=O)c2cc(-c3ccccc3)on2)Cc2ccccc21` (stereo not drawn) [Compound P-32, [4-methyl-4-(3-pyridyl)-1,3-dihydroisoquinolin-2-yl]-(5-phenylisoxazol-3-yl)methanone] is ≥ 80%. Regarding `Cn1cnc(C2CN(C(=O)c3cc(-c4ccc(F)cc4F)on3)Cc3ccccc32)n1` (stereo not drawn) [Compound P-33, [5-(2,4-difluorophenyl)isoxazol-3-yl]-[4-(1-methyl-1,2,4-triazol-3-yl)-3,4-dihydro-1H-isoquinolin-2-yl]methanone], the inhibition of growth at 20 ppm was ≥ 80%. With `O=C(c1cc(-c2ccccc2)on1)N1Cc2ccccc2C(c2ccc(F)nc2)C1` (stereo not drawn) [Compound P-34, [4-(6-fluoro-3-pyridyl)-3,4-dihydro-1H-isoquinolin-2-yl]-(5-phenylisoxazol-3-yl)methanone] the figure was ≥ 80%. Regarding `Cn1cc(C2CN(C(=O)c3cc(-c4ccc(F)cc4F)on3)Cc3ccccc32)nn1` (stereo not drawn) [Compound P-35, [5-(2,4-difluorophenyl)isoxazol-3-yl]-[4-(1-methyltriazol-4-yl)-3,4-dihydro-1H-isoquinolin-2-yl]methanone], the inhibition of growth at 20 ppm was ≥ 80%. The figure for `O=C(c1cc(-c2ccc(F)cc2F)on1)N1Cc2ccccc2C(c2cccnn2)C1` (stereo not drawn) [Compound P-36, [5-(2,4-difluorophenyl)isoxazol-3-yl]-(4-pyridazin-3-yl-3,4-dihydro-1H-isoquinolin-2-yl)methanone] is ≥ 80%. With `Cc1nc(C2CN(C(=O)c3cc(-c4ccc(F)cc4F)on3)Cc3ccccc32)nn1C` (stereo not drawn) [Compound P-39, [5-(2,4-difluorophenyl)isoxazol-3-yl]-[4-(1,5-dimethyl-1,2,4-triazol-3-yl)-3,4-dihydro-1H-isoquinolin-2-yl]methanone] the figure was ≥ 80%.

The values are drawn from patent publication US20260200905A1, “MICROBIOCIDAL TETRAHYDROISOQUINOLINE DERIVATIVES” (SYNGENTA CROP PROTECTION AG, priority 2022, published 2026).
